The results in this text go back to US7371563B2, “Peelable and resealable devices for biochemical assays” (Surface Logix, Inc., priority 2000, dated 2008).

The target in the assay is T1, β1,4-galactosyltransferase (Bos taurus, UniProt P08037).
T1 sequence (P08037 1-402): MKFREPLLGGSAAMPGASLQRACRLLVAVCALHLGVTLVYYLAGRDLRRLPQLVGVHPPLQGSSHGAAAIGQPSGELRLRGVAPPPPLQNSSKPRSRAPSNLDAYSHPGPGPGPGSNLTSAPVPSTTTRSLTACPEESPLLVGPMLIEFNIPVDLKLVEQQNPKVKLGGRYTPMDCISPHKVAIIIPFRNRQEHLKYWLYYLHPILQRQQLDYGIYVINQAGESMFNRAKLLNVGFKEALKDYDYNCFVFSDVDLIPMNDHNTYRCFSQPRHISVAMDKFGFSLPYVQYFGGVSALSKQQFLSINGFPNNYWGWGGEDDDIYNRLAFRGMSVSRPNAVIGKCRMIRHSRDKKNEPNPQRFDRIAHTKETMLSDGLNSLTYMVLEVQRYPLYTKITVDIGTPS
As to the kind of experiment: Glycosyltransferase assay on immobilized carbohydrates. The format is biochemical, bovine. The following applies: immobilized carbohydrate; UDP [^14C] galactose, 3.5 μM; phosphorimaging. The procedure:
FIG. 41 represents the results of a glycosyltransferase assay. The surface comprises 3 different carbohydrate substrates defined by columns and a control column (no substrate). Each row was reacted with a different concentration of β1,4-galactosyltransferase and a constant concentration of sugar donor (UDP [^14C] galactose, 3.5 μM). The reaction was detected by phosphorimaging.
Referring to FIG. 41, in the glycosyltransferase assay, various carbohydrates were immobilized using a thiol chemical tag to bond to a monolayer thiolate bearing a maleimide group. A glycosyltransferase enzyme was added to the immobilized carbohydrates. The ability of the enzyme to add radioactively labeled sugars to the immobilized carbohydrates was measured. In the glycosyltransferase assay the enzyme that was employed is bovine recombinant β 1,4-galactosyltransferase. Preferably, the enzyme is at a concentration of about 10 pM to about 100 uM. More preferably, the enzyme is at a concentration of about 100 pM to about 1 uM. […]
Detection of glycosylation of the immobilized carbohydrate substrates on the base plate was performed radiometrically. The incorporation of ^14C was quantified by exposing a storage phosphor screen to the plate and then imaging it on a Variable Mode Imager (Typhoon 8600; Molecular Dynamics, Sunnyvale, Calif.). […]

Each structure is given as a SMILES string.

`CC(=O)N[C@H]1C(O)O[C@H](CO)[C@@H](O)[C@@H]1O` (stereo partly shown) [GlcNAc]: the “substrate for β1,4-galactosyltransferase” value is reported as “only the immobilized GlcNAc was a substrate”.
